This is an account of results in patent US20220370440A1 (Lead Discovery Center GmbH, priority 2018, published 2022).

In assay [1] the target is T1, HER2 INS YVMA (Homo sapiens, UniProt P04626, INS775YVMA).
T1 construct: purchased DPF
Put plainly: Lance Kinase Activity Assay, HER2 INS YVMA (Her2 Exon 20 INSYVMA Lance). In kind it is biochemical. The conditions noted are these: biochemical Lance assay. In short, it runs like this: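 Kinase phosphorylates a ULight-labelled peptide substrate; Eu anti-phospho antibody gives TR-FRET (ex 340 nm, em 665/615 nm). Compounds in 1:3 serial dilution over 8 steps, reaction started with ATP, 1 h at room temperature, stopped with EDTA-containing detection mix for 1 h. IC50 from sigmoidal dose-response curves.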

Assay [2] deals with Her2 Exon 20 INSYVMA Ba/F3 (Homo sapiens, UniProt P04626, DUP772-775, cells depend on it). Put plainly: Her2 Exon 20 INSYVMA Ba/F3 CellTiter-Glo. In kind it is cell-based. Particulars: CellTiter-Glo, 72 h, read-out: Her2 Exon 20 INSYVMA Ba/F3 CTG IC50. In short, it runs like this:
(§1)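 IC50 values, binned A (≤100 nM) through E (>10000 nM), come from luminescent ATP quantitation of viable mutant-driven Ba/F3 cells. Compound exposure lasted 72 h, starting 24 h post-seeding; DMSO and 10 μM staurosporine served as controls, Z′ ≥0.5 required.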

Assay [3] has as its target EGFR Exon 20 INSNPH Ba/F3 (Homo sapiens, UniProt P00533, DUP771-773, cells depend on it). Put plainly: EGFR Exon 20 INSNPH Ba/F3 CellTiter-Glo. Particulars: CellTiter-Glo, 72 h, read-out: EGFR Exon 20 INSNPH Ba/F3 CTG IC50. In kind it is cell-based. In short, it runs like this:
as §1
A general note: ATP-based viability assays read luminescence as a measure of living cells.

For assay [4], the target named is EGFR T790ML858R (Homo sapiens, UniProt P00533, L858R/T790M). Kind of assay: EGFR T790ML858R Lance assay. It is filed as biochemical. The procedure: (§2) Inhibition is indicated as […] [nM] (“−”=not measured). Compounds having an activity designated as “A” provided an IC50≤100 nM; compounds having an activity designated as “B” provided an 100 nM<IC50≤500 nM; compounds having an activity designated as “C” provided an 500 nM<IC50≤1000 nM; compounds having an activity designated as “D” provided an 1000 nM<IC50≤100000 nM; and compounds having an activity designated as “E” provided an IC50>10000 nM.

Assay [5] concerns the target EGFR wt (Homo sapiens, UniProt P00533). Put plainly: EGFR wt Lance assay. It is filed as biochemical. As for the experimental part:
as §2

The test system of assay [6] is H1975. Put plainly: H1975 CellTiter-Glo. It is filed as cell-based. The conditions noted are these: Homo sapiens, NCI-H1975; 72 h compound incubation; read-out: H1975 CTG IC50. In short, it runs like this:
(§3)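 Cells were seeded, left 24 h at 37° C. and 5% CO2, then exposed to compounds in DMSO at different concentrations for a further 72 h. Viability was read as ATP-dependent luminescence (CellTiter-Glo), and IC50 values were obtained from dose-response fits against DMSO and 10 μM Staurosporine controls.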

Assay [7] has as its system A431. Put plainly: A431 CellTiter-Glo. In kind it is cell-based. The conditions noted are these: Homo sapiens, A-431; 72 h compound incubation; read-out: A431 CTG IC50. The gist of the method: as §3

In general, IC50 refers to the concentration that gives 50% inhibition.

EGFR wt, sequence (P00533 25-1210): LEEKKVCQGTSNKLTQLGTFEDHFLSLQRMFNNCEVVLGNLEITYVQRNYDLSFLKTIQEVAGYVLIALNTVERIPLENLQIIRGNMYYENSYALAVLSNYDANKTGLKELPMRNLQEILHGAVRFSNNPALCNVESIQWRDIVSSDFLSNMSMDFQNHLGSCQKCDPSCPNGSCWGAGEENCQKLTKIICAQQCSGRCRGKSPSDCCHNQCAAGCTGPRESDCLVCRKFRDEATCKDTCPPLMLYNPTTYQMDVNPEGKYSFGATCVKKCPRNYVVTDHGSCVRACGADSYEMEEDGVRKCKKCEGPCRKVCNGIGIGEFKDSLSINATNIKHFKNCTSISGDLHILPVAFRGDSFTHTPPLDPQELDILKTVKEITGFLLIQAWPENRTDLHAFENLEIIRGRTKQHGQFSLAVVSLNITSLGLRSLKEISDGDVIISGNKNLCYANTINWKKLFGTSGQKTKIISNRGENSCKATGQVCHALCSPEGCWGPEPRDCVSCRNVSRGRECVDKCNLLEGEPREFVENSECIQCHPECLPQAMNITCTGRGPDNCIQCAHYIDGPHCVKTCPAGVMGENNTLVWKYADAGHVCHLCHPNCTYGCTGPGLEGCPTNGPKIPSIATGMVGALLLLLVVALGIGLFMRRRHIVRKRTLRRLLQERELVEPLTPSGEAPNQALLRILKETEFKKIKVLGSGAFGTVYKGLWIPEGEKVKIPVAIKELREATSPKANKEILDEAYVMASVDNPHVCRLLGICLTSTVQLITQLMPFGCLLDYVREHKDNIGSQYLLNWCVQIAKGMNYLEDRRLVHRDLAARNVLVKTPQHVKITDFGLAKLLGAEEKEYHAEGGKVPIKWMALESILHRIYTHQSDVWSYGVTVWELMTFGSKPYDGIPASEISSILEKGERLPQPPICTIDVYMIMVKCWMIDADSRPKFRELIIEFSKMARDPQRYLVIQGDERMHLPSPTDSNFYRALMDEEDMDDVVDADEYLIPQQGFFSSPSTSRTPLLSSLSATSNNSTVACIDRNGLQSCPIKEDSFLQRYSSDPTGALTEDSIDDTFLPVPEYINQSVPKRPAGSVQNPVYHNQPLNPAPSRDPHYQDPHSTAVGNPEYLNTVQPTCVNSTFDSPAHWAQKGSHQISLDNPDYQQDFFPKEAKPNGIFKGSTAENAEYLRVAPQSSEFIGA
Her2 Exon 20 INSYVMA Ba/F3, sequence (P04626 with tags, fused parts or gaps DUP772-775): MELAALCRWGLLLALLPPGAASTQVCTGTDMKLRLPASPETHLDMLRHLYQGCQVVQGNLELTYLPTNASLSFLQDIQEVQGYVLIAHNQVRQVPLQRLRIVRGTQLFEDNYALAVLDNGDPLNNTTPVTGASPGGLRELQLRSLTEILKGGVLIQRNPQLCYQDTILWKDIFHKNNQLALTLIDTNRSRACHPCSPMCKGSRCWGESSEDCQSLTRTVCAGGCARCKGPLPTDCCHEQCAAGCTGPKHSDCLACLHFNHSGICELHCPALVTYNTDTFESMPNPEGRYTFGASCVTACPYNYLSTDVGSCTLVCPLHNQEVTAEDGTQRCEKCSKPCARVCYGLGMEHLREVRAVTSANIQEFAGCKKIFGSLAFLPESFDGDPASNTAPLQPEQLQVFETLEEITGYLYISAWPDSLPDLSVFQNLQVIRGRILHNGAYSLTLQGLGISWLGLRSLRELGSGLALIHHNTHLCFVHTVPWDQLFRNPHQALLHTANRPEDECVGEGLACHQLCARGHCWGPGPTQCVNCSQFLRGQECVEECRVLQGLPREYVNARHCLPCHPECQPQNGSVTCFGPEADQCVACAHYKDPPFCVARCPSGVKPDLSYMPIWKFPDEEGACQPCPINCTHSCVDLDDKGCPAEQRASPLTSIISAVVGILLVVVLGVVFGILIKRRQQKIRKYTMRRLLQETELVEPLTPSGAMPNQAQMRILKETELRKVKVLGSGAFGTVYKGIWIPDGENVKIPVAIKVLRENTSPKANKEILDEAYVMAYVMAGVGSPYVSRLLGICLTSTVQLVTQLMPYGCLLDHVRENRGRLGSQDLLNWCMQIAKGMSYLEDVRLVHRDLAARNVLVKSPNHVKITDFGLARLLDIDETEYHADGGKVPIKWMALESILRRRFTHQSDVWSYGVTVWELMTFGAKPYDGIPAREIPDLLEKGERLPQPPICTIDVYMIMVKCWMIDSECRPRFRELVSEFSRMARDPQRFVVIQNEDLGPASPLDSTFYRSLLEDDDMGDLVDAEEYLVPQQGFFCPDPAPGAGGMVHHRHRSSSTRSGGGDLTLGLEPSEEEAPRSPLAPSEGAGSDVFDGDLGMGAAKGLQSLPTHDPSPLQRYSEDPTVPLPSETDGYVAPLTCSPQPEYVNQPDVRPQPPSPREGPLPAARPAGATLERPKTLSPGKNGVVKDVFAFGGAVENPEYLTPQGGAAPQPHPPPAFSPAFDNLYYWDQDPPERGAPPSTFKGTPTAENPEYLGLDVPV
EGFR T790ML858R, sequence (P00533 25-1210 T790M/L858R): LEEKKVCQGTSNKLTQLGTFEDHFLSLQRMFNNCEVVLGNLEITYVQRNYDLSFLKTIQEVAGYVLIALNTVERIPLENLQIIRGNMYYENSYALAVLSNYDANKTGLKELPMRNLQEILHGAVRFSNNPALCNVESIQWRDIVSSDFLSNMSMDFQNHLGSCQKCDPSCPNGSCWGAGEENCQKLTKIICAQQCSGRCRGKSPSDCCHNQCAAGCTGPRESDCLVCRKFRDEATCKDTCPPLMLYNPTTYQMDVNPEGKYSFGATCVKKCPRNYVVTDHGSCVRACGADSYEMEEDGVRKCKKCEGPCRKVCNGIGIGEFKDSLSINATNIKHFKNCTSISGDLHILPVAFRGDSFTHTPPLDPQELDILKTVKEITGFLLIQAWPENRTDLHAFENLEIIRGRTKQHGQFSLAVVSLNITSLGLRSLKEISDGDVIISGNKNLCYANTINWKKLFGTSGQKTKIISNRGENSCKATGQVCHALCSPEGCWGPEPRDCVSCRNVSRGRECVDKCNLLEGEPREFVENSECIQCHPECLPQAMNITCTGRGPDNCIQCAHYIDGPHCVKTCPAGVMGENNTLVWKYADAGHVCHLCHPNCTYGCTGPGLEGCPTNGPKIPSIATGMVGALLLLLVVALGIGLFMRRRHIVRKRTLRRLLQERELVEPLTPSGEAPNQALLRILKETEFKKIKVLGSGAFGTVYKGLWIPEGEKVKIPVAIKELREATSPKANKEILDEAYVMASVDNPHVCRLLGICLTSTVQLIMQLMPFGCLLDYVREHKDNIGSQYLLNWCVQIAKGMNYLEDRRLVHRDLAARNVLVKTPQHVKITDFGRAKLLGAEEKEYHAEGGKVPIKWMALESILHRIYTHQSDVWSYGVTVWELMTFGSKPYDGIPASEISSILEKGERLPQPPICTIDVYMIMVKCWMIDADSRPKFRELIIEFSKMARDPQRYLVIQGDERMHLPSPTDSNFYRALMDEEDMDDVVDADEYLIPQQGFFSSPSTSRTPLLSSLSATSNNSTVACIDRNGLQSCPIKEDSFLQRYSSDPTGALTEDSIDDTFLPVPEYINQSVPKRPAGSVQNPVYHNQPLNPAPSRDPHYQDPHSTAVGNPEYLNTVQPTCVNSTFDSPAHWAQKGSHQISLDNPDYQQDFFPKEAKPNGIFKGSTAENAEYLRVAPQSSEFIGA
EGFR Exon 20 INSNPH Ba/F3, sequence (P00533 with tags, fused parts or gaps DUP771-773): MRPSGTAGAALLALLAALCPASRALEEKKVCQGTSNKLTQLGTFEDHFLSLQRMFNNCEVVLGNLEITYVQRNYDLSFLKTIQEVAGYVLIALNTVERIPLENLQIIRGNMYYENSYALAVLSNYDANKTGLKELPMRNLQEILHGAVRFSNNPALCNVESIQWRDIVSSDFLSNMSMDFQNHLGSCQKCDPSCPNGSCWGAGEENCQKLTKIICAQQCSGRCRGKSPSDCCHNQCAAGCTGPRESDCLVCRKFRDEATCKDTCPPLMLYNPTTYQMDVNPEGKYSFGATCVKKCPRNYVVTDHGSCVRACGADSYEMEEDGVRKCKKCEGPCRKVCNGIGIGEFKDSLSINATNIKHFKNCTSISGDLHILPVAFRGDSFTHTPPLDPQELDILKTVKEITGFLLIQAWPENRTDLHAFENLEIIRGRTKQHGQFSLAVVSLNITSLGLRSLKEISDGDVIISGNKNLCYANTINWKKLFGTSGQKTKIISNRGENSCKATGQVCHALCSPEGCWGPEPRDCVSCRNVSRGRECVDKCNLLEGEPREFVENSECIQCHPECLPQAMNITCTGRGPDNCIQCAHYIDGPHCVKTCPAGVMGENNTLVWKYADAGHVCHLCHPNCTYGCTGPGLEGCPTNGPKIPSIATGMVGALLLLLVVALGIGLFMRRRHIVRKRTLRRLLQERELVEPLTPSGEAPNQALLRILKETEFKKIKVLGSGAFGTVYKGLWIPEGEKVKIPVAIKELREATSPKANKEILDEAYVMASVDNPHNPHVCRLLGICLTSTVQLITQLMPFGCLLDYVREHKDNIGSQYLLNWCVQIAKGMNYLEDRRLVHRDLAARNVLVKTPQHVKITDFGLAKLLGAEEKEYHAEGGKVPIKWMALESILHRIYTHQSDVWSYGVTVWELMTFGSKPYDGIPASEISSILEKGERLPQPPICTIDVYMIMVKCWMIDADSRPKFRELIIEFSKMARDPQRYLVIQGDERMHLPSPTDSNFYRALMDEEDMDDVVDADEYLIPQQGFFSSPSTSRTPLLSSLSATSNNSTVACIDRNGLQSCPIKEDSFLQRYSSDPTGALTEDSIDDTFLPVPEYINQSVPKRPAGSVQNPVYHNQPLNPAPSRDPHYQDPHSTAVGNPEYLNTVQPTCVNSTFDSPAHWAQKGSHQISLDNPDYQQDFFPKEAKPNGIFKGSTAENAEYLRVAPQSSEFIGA

In the case of `C=CC(=O)Nc1cc(-c2c(-c3ccc(N4CCN(C)CC4)cc3)[nH]c3ncc(C(=O)NCCc4ccc(F)cc4)cc23)ccc1C` [Example 124, 3-(3-acrylamido-4-methylphenyl)-N-(4-fluorophenethyl)-2-(4-(4-methylpiperazin-1-yl)phenyl)-1H-pyrrolo[2,3-b]pyridine-5-carboxamide], the concentration for half-maximal inhibition (IC50) in assay [1] was 0.1 to 0.5 µM; in assay [4], at most 0.1 µM; in assay [5], at most 0.1 µM; in assay [6], 0.5 to 1 µM; in assay [7] it was 0.5 to 1 µM. In addition, the GI50 in assay [2] lay in the range of 0.1 to 0.5 µM; in assay [3], 0.5 to 1 µM.
In the case of `C=CC(=O)N1CCOc2ccc(-c3c(-c4ccc(CN(C)C)cc4)[nH]c4nccc(Cl)c34)cc21` [Example 102, 1-(6-(4-chloro-2-(4-((dimethylamino)methyl)phenyl)-1H-pyrrolo[2,3-b]pyridin-3-yl)-2H-benzo[b][1,4]oxazin-4(3H)-yl)prop-2-en-1-one], the IC50 was at most 0.1 µM in assay [1]; at most 0.1 µM in assay [4]; at most 0.1 µM in assay [5]; 0.1 to 0.5 µM in assay [6]; 1 to 100 µM in assay [7]. Besides, the GI50 in assay [2] and in assay [3] was 0.1 to 0.5 µM throughout.
Consider `C=CC(=O)Nc1cc(-c2c(-c3ccc(N4CCN(C)CC4)cc3)[nH]c3ncc(CC(=O)OC)cc23)ccc1C` [Example 195, methyl 2-(3-(3-acrylamido-4-methylphenyl)-2-(4-(4-methylpiperazin-1-yl)phenyl)-1H-pyrrolo[2,3-b]pyridin-5-yl)acetate], for which the half-maximal inhibitory concentration (IC50) was at most 0.1 µM in assay [1]; at most 0.1 µM in assay [4]; at most 0.1 µM in assay [5]; 0.1 to 0.5 µM in assay [6]; 1 to 100 µM in assay [7]. In addition, the GI50 in assay [2] and in assay [3] was 0.1 to 0.5 µM throughout.
`C=CC(=O)Nc1cc(-c2c(-c3cccc(CN4CCN(C)CC4)c3)[nH]c3ncc(C(=O)OC(C)C)cc23)ccc1C` [Example 181, isopropyl 3-(3-acrylamido-4-methylphenyl)-2-(3-((4-methylpiperazin-1-yl)methyl)phenyl)-1H-pyrrolo[2,3-b]pyridine-5-carboxylate]: the half-maximal inhibitory concentration (IC50) in assay [1] was at most 0.1 µM; in assay [4] it was at most 0.1 µM; in assay [5], at most 0.1 µM; in assay [6], 0.5 to 1 µM; in assay [7] it was 1 to 100 µM. Besides, the GI50 in assay [2] and in assay [3] was 0.5 to 1 µM in each case.
As to `C=CC(=O)Nc1cc(-c2c(-c3ccc(CCO)cc3)[nH]c3ncc(C(=O)OC(C)C)cc23)ccc1C` [Example 168, isopropyl 3-(3-acrylamido-4-methylphenyl)-2-(4-(2-hydroxyethyl)phenyl)-1H-pyrrolo[2,3-b]pyridine-5-carboxylate], the IC50 in assay [1] is 0.1 to 0.5 µM; in assay [4], 0.1 to 0.5 µM; in assay [5], at most 0.1 µM; in assay [6], 1 to 100 µM; in assay [7], 1 to 100 µM. The GI50 in assay [2] and in assay [3] was 0.5 to 1 µM throughout.
Take `C=CC(=O)Nc1cc(-c2c(-c3ccc(N4CCN(C)CC4)cc3)[nH]c3ncc(CO)cc23)ccc1C` [Example 199, N-(5-(5-(hydroxymethyl)-2-(4-(4-methylpiperazin-1-yl)phenyl)-1H-pyrrolo[2,3-b]pyridin-3-yl)-2-methylphenyl)acrylamide 2,2,2-trifluoroacetate]: the half-inhibitory concentration (IC50) in assay [1] was at most 0.1 µM; in assay [4], at most 0.1 µM; in assay [5], at most 0.1 µM; in assay [6] it was 0.1 to 0.5 µM; in assay [7], 1 to 100 µM. Further, the figures for the GI50 in assay [2] and in assay [3] were 0.5 to 1 µM and 0.1 to 0.5 µM, respectively.
In the case of `C=CC(=O)N1CCCc2ccc(-c3c(-c4ccc(OCCN5CCCC5)cc4)[nH]c4nccc(Cl)c34)cc21` [Example 90, 1-(7-(4-chloro-2-(4-(2-(pyrrolidin-1-yl)ethoxy)phenyl)-1H-pyrrolo[2,3-b]pyridin-3-yl)-3,4-dihydroquinolin-1(2H)-yl)prop-2-en-1-one], the 50% inhibitory concentration (IC50) in assay [1] is at most 0.1 µM; in assay [4] it was at most 0.1 µM; in assay [5] it was at most 0.1 µM; in assay [6] it was 0.1 to 0.5 µM; in assay [7], 1 to 100 µM. For the same compound, the GI50 in assay [2] was 0.5 to 1 µM; in assay [3], 1 to 10 µM.
Consider `C=CC(=O)N1CCOc2ccc(-c3c(-c4ccc(OCCN5CCCC5)cc4)[nH]c4nccc(Cl)c34)cc21` [Example 101, 1-(6-(4-chloro-2-(4-(2-(pyrrolidin-1-yl)ethoxy)phenyl)-1H-pyrrolo[2,3-b]pyridin-3-yl)-2H-benzo[b][1,4]oxazin-4(3H)-yl)prop-2-en-1-one], for which the IC50 in assay [1] was at most 0.1 µM; in assay [4], at most 0.1 µM; in assay [5], at most 0.1 µM; in assay [6], 0.1 to 0.5 µM; in assay [7] it was 1 to 100 µM. In addition, the GI50 in assay [2] and in assay [3] was 0.1 to 0.5 µM each time.
For the compound `C=CC(=O)Nc1cc(-c2c(-c3ccc(N4CCOCC4)nc3)[nH]c3ncc(C(=O)OC(C)C)cc23)ccc1C` [Example 171, isopropyl 3-(3-acrylamido-4-methylphenyl)-2-(6-morpholinopyridin-3-yl)-1H-pyrrolo[2,3-b]pyridine-5-carboxylate], the concentration for half-maximal inhibition (IC50) in assay [1] was 1 to 10 µM; in assay [4], 0.5 to 1 µM; in assay [5], at most 0.1 µM; in assay [6], 1 to 100 µM; in assay [7], 1 to 100 µM. Moreover, the GI50 in assay [2] and in assay [3] was 1 to 10 µM in each case.
Turning to `C=CC(=O)Nc1cc(-c2c(-c3ccc(N4CCN(C)CC4)cc3)[nH]c3ncc(CC(=O)O)cc23)ccc1C` [Example 189, 2-(3-(3-acrylamido-4-methylphenyl)-2-(4-(4-methylpiperazin-1-yl)phenyl)-1H-pyrrolo[2,3-b]pyridin-5-yl)acetic acid 2,2,2-trifluoroacetate], the half-inhibitory concentration (IC50) in assay [1] is at most 0.1 µM; in assay [4], at most 0.1 µM; in assay [5], at most 0.1 µM; in assay [6], over 10 µM; in assay [7], over 10 µM. In addition, the GI50 in assay [2] and in assay [3] was over 10 µM in each case.
As to `C=CC(=O)Nc1cc(-c2c(-c3ccc(CN(C)C)cc3)[nH]c3ncc(C(=O)OC(C)C)cc23)ccc1C` [Example 151, isopropyl 3-(3-acrylamido-4-methylphenyl)-2-(4-((dimethylamino)methyl)phenyl)-1H-pyrrolo[2,3-b]pyridine-5-carboxylate], the concentration for half-maximal inhibition (IC50) in assay [1] was at most 0.1 µM; in assay [4], at most 0.1 µM; in assay [5] it was at most 0.1 µM; in assay [6], 0.1 to 0.5 µM; in assay [7], 1 to 100 µM. Further, the GI50 in assay [2] and in assay [3] was 0.1 to 0.5 µM throughout.
As to `C=CC(=O)NCc1cccc(-c2c(-c3ccc(N4CCN(C)CC4)cc3)[nH]c3ncc(C(=O)OC(C)C)cc23)c1` [Example 203, isopropyl 3-(3-(acrylamidomethyl)phenyl)-2-(4-(4-methylpiperazin-1-yl)phenyl)-1H-pyrrolo[2,3-b]pyridine-5-carboxylate 2,2,2-trifluoroacetate], the IC50 in assay [1] lay in the range of 1 to 10 µM; in assay [4], 0.5 to 1 µM; in assay [5], 0.1 to 0.5 µM; in assay [6], 1 to 100 µM; in assay [7], 1 to 100 µM. Further, the GI50 in assay [2] and in assay [3] was 1 to 10 µM in each case.
Take `C=CC(=O)Nc1cc(-c2c(-c3ccc(N4CCN(C)CC4)cc3)[nH]c3ncc(C(=O)NCc4ccc(NC(C)=O)cc4)cc23)ccc1C` [Example 132, N-(4-acetamidobenzyl)-3-(3-acrylamido-4-methylphenyl)-2-(4-(4-methylpiperazin-1-yl)phenyl)-1H-pyrrolo[2,3-b]pyridine-5-carboxamide]: the IC50 in assay [1] is 0.5 to 1 µM; in assay [4], 0.1 to 0.5 µM; in assay [5], at most 0.1 µM; in assay [6], over 10 µM; in assay [7], over 10 µM. Also, the GI50 in assay [2] and in assay [3] was over 10 µM in each case.
For the compound `C=CC(=O)Nc1cc(-c2c(-c3ccc(N4CCN(C)CC4)nc3)[nH]c3ncc(C(=O)OC(C)C)cc23)ccc1C` [Example 163, isopropyl 3-(3-acrylamido-4-methylphenyl)-2-(6-(4-methylpiperazin-1-yl)pyridin-3-yl)-1H-pyrrolo[2,3-b]pyridine-5-carboxylate], the IC50 in assay [1] was at most 0.1 µM; in assay [4], at most 0.1 µM; in assay [5], at most 0.1 µM; in assay [6], 0.5 to 1 µM; in assay [7] it was 1 to 100 µM. Moreover, the GI50 in assay [2] and in assay [3] was 0.5 to 1 µM in each case.
